In patent publication US20240228987A1, “HEXOKINASE-DERIVED PEPTIDES AND THERAPEUTICAL USES THEREOF” (INSERM (INSTITUT NATIONAL DE LA SANTÉ ET DE LA RECHERCHE …, priority 2021, published 2024):
Where a SMILES comes first, the peptide text is derived from it. [ ]: non-standard residue; d: D form. Nle = CCCC[C@H](N)C(=O)O

What was measured:
[1] = target: T1, VDAC (Homo sapiens, UniProt P21796); experiment: time-lapse recording of mitochondrial calcium probe mito-GCaMP2 in HEK293 cells treated with MJ and HK1 N-terminal peptides (FIG. 3); format: cell-based; details: peptides at 5 microMolar, MJ 6 mM
T1 construct: HEK-293 cells, expressing VDAC and HK; endogenous in cells; host or cells: HEK-293 (ATCC), transfected only with the Ca2+ probes mitoGCaMP2 / GCaMP2
T1 sequence (P21796 2-283): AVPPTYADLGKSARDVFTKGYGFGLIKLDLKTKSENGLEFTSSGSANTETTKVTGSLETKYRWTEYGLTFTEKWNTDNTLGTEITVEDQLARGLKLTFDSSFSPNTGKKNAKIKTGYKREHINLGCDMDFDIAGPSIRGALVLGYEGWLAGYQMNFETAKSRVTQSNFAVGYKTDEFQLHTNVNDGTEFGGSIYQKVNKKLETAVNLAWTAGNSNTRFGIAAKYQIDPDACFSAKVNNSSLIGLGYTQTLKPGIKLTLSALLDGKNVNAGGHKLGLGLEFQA
Experimental: FIG. 3: Time-lapse recording of fluorescence intensity of the mitochondrial calcium probe in HEK293 cells treated with Methyl Jasmonate (MJ, 6 milliMolar) and Nterminal peptide of wt HK1 (HK1-Nt peptide) or Nterminal peptide of mutated HK1 (HKmut-Nt peptide). HEK 293 cells were transfected with a plasmid expressing mito-GCaMP2. 48 hours later cells were imaged using a Zeiss Axio-observer designed for live-imaging and treated with MJ (6 mM) and/or peptides at 5 microMolar. Peptide sequences: wt HK1 peptide Ac-[…]-NH2 (SEQ ID NO:90), CMT4G-mutated HK1 peptide Ac-[…]-NH2 (SEQ ID NO:91) and Control peptide Ac-[…]-NH2 (SEQ ID NO:92).

[2] = target: T1, VDAC; experiment: in-cellulo screening assay: HEK-293 cells transfected with mitoGCaMP2, MJ-induced mitochondrial Ca2+ release through VDAC; format: cell-based
Experimental: The activity of the designed compounds was assessed on HEK-293 cells transfected with mitoGCaMP2. 40,000 cells per well were seeded in 96-well-microplates coated with Poly-D-Lysine (reference 655946, Greiner Bio-One, France) in 200 μl of DMEM supplemented with 10% FBS and 1% PS. 24 h after seeding, cells were transfected with 50 ng of mitoGCaMP2 plasmid per well using jet-PRIME reagent (Polyplus-transfection S.A, France) according to the manufacturer's recommendations. 48 h after transfection, a first measure of fluorescence was performed using the microplate reader CLARIOstar® (BMG Labtech, France). This measurement represented the basal level of Ca2+ into the mitochondria upon transfection. After a wash with 100 μl of PBS, cells were incubated with a mixture of pre-heated (37° C.) MJ at a final concentration of 6 mM and compounds at the indicated final concentrations in PBS containing 0.1% DMSO and 5% EtOH. After 35 min in a cell incubator, a second measure of fluorescence was performed using the microplate reader CLARIOstar®. This measure represented the level of mitochondrial Ca2+ according to the peptide activity. Compounds were tested in triplicates per microplates and in three or five independent experiments for each peptide. For dose effect curves, compounds were tested in triplicates per microplates and in three independent experiments. Results are expressed as the ratio between the second and first measures and normalized to the conditions without compounds containing only PBS with 0.1% DMSO and 5% EtOH. Results are expressed as the means±SD in histogram plots and dose response curves using GraphPad Prism software (version 8.0.1).
The biological screening of the peptide is based on the ability of methyl jasmonate (MJ) to binds and detaches HK-1 from mitochondrial VDAC in a time and dose dependent manner.^16,20 For this purpose, we developed an in-cellulo screening assay in which HEK-293 cells, expressing VDAC and HK,25 were transfected with GCaMP2, a cytoplasmic Ca2+-sensing probe, or with mitoGCaMP2, the same probe addressed to mitochondrial matrix. […] MJ that removes HK from VDAC was used to induce a Ca2+ release outside mitochondria measured through a drop in mitoGCaMP2 fluorescence and an increase in GCaMP2 fluorescence in cells.

[3] = tested on: HEK293 cells; experiment: Rhod-2 mitochondrial calcium imaging in HEK293 cells, methyl jasmonate (Example 2); format: cell-based; details: methyl jasmonate 6 mM, 40 minutes; 5z peptide 5 μM or AAV9 infection
Experimental: (§1) FIG. 12: AAV9 represents an efficient way to sustain anti-demyelinating peptide expression in target cells. HEK293 cells were infected with a control AAV9 or AAV9-HK peptide or not infected. Two days later cells were incubated with a fluorescent dye Rhod-2 that fluoresces with calcium in mitochondria. 15 minutes later infected cells were incubated with methyl jasmonate (6 mM) and non-infected cells were incubated with methyl jasmonate (6 mM)+5z peptide (5 μM) for 40 minutes. Pictures were taken every 5 minutes imaging Rhod-2 dye.
as §1, with “We produced an” for “FIG. 12:”, “virus expressing HK” for “represents an efficient way to sustain anti-demyelinating”, “5z (AAV9-HK peptide).” for “expression in target cells.”

[4] = target: T1, VDAC; experiment: live imaging of HEK-293 cells transfected with mitoGCaMP2 or GCaMP2, MJ treatment; format: cell-based; details: peptide at 33 μM, MJ 6 mM, 30 min
Experimental: (§2) FIG. 5. Time-lapse quantification of mitoGCaMP2 (A) and GCaMP2 (B) fluorescence levels within mitochondria and within the cytosol respectively. Quantifications of fluorescence levels of HEK-293 cells transfected with mitoGCaMP2 (A) and GCaMP2 (B) probes. Control (circle) represents the fluorescence level in mitochondria when treating the cells with the diluents 0.1 DMSO and 5% EtOH used for MJ and compound solubilization. MJ was tested at 6 mM and compound 1a at 33 μM. Statistical analysis using two-way ANOVA followed by Tukeys's multiple comparison tests (N=3 independent experiments). Results are expressed as means±SEM. **p<0.01, ****p<0.0001, ns. non significant. A. U. arbitrary unit
(§3) Live imaging experiments were performed on HEK-293 cells transfected with either the mitoGCaMP2 or the GCaMP2 plasmids. 500,000 cells per well were seeded in 6-well microplate (NUNC, reference 153066, Thermo Fisher Scientific, France) in 1 ml of DMEM supplemented with 10% FBS and 1% PS. 48 h after seeding, cells were transfected with 2 μg of mitoGCaMP2 or GCaMP2 plasmids using jet-PRIME reagent according to the manufacturer's protocol. 48h after transfection, the microplates were placed under a videomicroscope equipped with a humidified chamber at 37° C. and with 5% CO2. Next, 6 mM of pre-heated MJ (37° C.) was added to the wells with or without the peptide 1a at 33 μM in 1 ml of DMEM without red phenol supplemented with 10% FBS and 1% PS, and containing 0.1% DMSO and 5% EtOH. In parallel, wells containing only 1 ml of DMEM without red phenol and with 10% FBS, 1% PS, 0.1% DMSO and 5% EtOH served as control condition. Live imaging acquisition was triggered when adding MJ with or without the peptide 1a. For the control condition, image acquisition was triggered after addition of 1 ml of DMEM without red phenol supplemented with 10% FBS and 1% PS, containing 0.1% DMSO and 5% EtOH. […] Overall, 5 ROIs per condition were analyzed using Zen software (Zen 2.3 lite, Zeiss, France) and ImageJ software (version 1.52o, NIH, USA). Results are expressed as the mean±SEM using GraphPad Prism software (version 8.0.1). […]

[5] = tested on: Schwann cells; details: cited from earlier work
[6] = tested on: VDAC; experiment: live imaging of HEK-293 cells transfected with mitoGCaMP2 or GCaMP2, MJ treatment; format: cell-based; details: MJ 6 mM
Experimental: as §2, §3

[7] = cited from earlier work

## Ac-MGQICQRESATAAEKGRKKRRQRRRPPQ-NH2 [peptide derived from the mutant HK1]
[1]
  mitochondrial calcium release following MJ treatment: no effect

## AQWWAYYYTEWK [5z, tested peptide also contains Tat]
[2]; compounds at 3 μM, MJ 6 mM, compared with 3c, 4d or 5x
  activity / affinity for VDAC on the screening assay (mitoGCaMP2 fluorescence): more significant
[3]
  Rhod-2 fluorescence in mitochondria: no decrease occurred

## CCCC[C@H](NC(C)=O)C(=O)N[C@H](C(=O)N[C@@H](C)C(=O)N[C@@H](C)C(=O)N[C@@H](CCC(N)=O)C(=O)N[C@@H](CC(C)C)C(=O)N[C@@H](CC(C)C)C(=O)N[C@@H](C)C(=O)N[C@@H](Cc1ccc(O)cc1)C(=O)N[C@@H](Cc1ccc(O)cc1)C(=O)N[C@@H](Cc1ccccc1)C(=O)N[C@H](C(=O)N[C@@H](CCC(=O)O)C(=O)N[C@@H](CC(C)C)C(=O)N[C@@H](CCCCN)C(=O)NCC(=O)N[C@@H](CCCNC(=N)N)C(=O)N[C@@H](CCCCN)C(=O)N[C@@H](CCCCN)C(=O)N[C@@H](CCCNC(=N)N)C(=O)N[C@@H](CCCNC(=N)N)C(=O)N[C@@H](CCC(N)=O)C(=O)N[C@@H](CCCNC(=N)N)C(=O)N[C@@H](CCCNC(=N)N)C(=O)N[C@@H](CCCNC(=N)N)C(=O)N1CCC[C@H]1C(=O)N1CCC[C@H]1C(=O)N[C@@H](CCC(N)=O)C(N)=O)[C@@H](C)O)[C@@H](C)CC [1a] (Ac-[Nle]IAAQLLAYYFTELKGRKKRRQRRRPPQ-NH2)
[2]; HEK-293 mitoGCaMP2, MJ 6 mM, 35 min, dose response, read-out: IC50 on mitochondrial Ca2+ release through VDAC
  IC50: 15.6 ± 2 µM
[4]
  fluorescence change induced by MJ treatment (mitoGCaMP2 and GCaMP2): blocked

## Ac-MIAAQLLAYYFTELKGRKKRRQRRRPPQ-NH2
[1]
  mitochondrial calcium release following MJ treatment: able to prevent mitochondrial calcium release

## CC/C=C\CC1C(=O)CCC1CC(=O)OC (centres unmarked) [MJ, Methyl jasmonate]
[3]
  Rhod-2 fluorescence in mitochondria: decrease
[5]
  demyelination: spontaneous demyelination
[6]; at least 30 min
  mitoGCaMP2 fluorescence (mitochondrial Ca2+): significant decrease
[6]; same timeframe
  GCaMP2 fluorescence (cytoplasmic Ca2+): increased significantly

## GRKKRRQRRRPQ [Tat]
[7]
  half-life in serum: less than 6 min
